The results in this text go back to patent US20250263753A1, “BRIDGED CYCLE-BASED INHIBITORS OF DNA-DEPENDENT PROTEIN KINASE AND COMPOSITIONS AND APPLICATION IN GENE EDITING” (Juno Therapeutics, Inc., priority 2023, published 2025).

In assay [1] the target is PI3Kα (His-PIK3CA/PIK3R1, p110 alpha/p85 alpha) (Homo sapiens (Human), UniProt P42336). As to the kind of experiment: PI3Kα biochemical assay (HTRF/FRET probe). Format: binding. Here is the method:
Phosphoinositide 3-kinase α (PI3Kα) Biochemical Assay: A solution was prepared containing 0.2 nM Anti-HIS-Terbium (Cisbio, 64CUSTAZU), 3.7 nM designed-probe and 1.0 nM His-PIK3CA/PIK3R1 (p110 alpha/p85 alpha) in FRET Buffer (20 mM HEPES, 10 mM MgCl2, 0.015% Brij-35, 4 mM DTT, 0.05 mg/mL BSA).

For another assay, the target named is ATM (Homo sapiens (Human), UniProt Q13315). Briefly: ATM biochemical assay (Reaction Biology HTRF kinase assay, 10 μM ATP). Here is the method: Ataxia-Telangiectasia Mutated (ATM) Biochemical Assay Using Reaction Biology's HTRF Kinase Assay Protocol:
The assay detects kinase activity by antibody based HTRF assay. The GST-tagged p53 protein serves as substrate and Eu-labeled-antibody with specific phosphorylation site binds upon phosphorylation which is monitored by HTRF from the anti-GST-d2.
Reagent: Reaction buffer; 50 mM Hepes (pH 7.5), 150 mM NaCl, 10 mM MnCl2, 1% Glycerol, 0.01% Brij35, 1 mM DTT, 1% DMSO.
Substrate: Human p53 (aa2-393), RBC produced in E. coli, N-terminal GST-Tag, MW=70.42 kDa.
Detection; MAb Anti-p53-pS15-Eu cryptate, CisBio cat #61P08KAZ; MAb Anti GST-d2
Reaction Procedure: 1. Deliver 2× Enzyme in wells of reaction plate except No E control wells. Add buffer instead; 2. Deliver compounds in 100% DMSO into the kinase reaction mixture by Acoustic technology (Echo550; nanoliter range), incubate for 30 min at room temperature; 3. Deliver 2× substrate+ATP mixture into the reaction mixture to initiate the reaction; 4. Incubate for 2 hours at room temperature.
HTRF Detection: 1. Deliver 2× Stop/Detection mixture and incubate for 2 hours to overnight in the dark. 2. HTRF measurement (Ex/Em1/Em2=320/615/665 nm) in EnVision.
(In TR-FRET formats the signal depends on donor and acceptor labels being close together.)

Another assay addresses DNA-PK (Homo sapiens (Human), UniProt P78527). Briefly: DNA-PK biochemical assay (Reaction Biology HotSpot kinase assay, 10 μM ATP). Here is the method:
DNA-PK Biochemical Assay Using Reaction Biology's HotSpot Kinase Assay Protocol:
Reagent: Base Reaction buffer; 20 mM Hepes (pH 7.5), 10 mM MgCl2, 1 mM EGTA, 0.01% Brij35, 0.02 mg/ml BSA, 0.1 mM Na3VO4, 2 mM DTT, 1% DMSO Required cofactors are added individually to each kinase reaction.
Reaction Procedure: 1. Prepare substrate in freshly prepared Reaction Buffer; 2. Deliver any required cofactors to the substrate solution above; 3. Deliver kinase into the substrate solution and gently mix; 4. Deliver compounds in 100% DMSO into the kinase reaction mixture by Acoustic technology (Echo550; nanoliter range), incubate for 20 min at room temperature; 5. Deliver 33P-ATP into the reaction mixture to initiate the reaction; 6. Incubate for 2 hours at room temperature; 7. Detect kinase activity by P81 filter-binding method.

Assay [2] addresses PI3Kδ (His-PIK3CD/PIK3R1, p110 delta/p85 alpha) (Homo sapiens (Human), UniProt O00329). Briefly: PI3Kδ biochemical assay (HTRF/FRET probe). It counts as binding. Here is the method:
Phosphoinositide 3-kinase (PI3K) Biochemical Assay: A solution was prepared containing 0.2 nM Anti-HIS-Terbium (Cisbio, 64CUSTAZU), 40 nM designed-probe and 1.0 nM His-PIK3CD/PIK3R1 (p110 delta/p85 alpha) in FRET Buffer (20 mM HEPES, 10 mM MgCl2, 0.015% Brij-35, 4 mM DTT, 0.05 mg/mL BSA).

The mark [3] stands for this setting: read-out: ATM HTRF 10 μM ATP IC50, class symbol.
Where [4] appears, read: read-out: DNA-PK HotSpot 10 μM ATP IC50, class symbol.

Like-named read-outs stand apart in the source and are kept apart here.

Chain of PI3Kα (His-PIK3CA/PIK3R1, p110 alpha/p85 alpha) (P42336 whole entry, species assumed): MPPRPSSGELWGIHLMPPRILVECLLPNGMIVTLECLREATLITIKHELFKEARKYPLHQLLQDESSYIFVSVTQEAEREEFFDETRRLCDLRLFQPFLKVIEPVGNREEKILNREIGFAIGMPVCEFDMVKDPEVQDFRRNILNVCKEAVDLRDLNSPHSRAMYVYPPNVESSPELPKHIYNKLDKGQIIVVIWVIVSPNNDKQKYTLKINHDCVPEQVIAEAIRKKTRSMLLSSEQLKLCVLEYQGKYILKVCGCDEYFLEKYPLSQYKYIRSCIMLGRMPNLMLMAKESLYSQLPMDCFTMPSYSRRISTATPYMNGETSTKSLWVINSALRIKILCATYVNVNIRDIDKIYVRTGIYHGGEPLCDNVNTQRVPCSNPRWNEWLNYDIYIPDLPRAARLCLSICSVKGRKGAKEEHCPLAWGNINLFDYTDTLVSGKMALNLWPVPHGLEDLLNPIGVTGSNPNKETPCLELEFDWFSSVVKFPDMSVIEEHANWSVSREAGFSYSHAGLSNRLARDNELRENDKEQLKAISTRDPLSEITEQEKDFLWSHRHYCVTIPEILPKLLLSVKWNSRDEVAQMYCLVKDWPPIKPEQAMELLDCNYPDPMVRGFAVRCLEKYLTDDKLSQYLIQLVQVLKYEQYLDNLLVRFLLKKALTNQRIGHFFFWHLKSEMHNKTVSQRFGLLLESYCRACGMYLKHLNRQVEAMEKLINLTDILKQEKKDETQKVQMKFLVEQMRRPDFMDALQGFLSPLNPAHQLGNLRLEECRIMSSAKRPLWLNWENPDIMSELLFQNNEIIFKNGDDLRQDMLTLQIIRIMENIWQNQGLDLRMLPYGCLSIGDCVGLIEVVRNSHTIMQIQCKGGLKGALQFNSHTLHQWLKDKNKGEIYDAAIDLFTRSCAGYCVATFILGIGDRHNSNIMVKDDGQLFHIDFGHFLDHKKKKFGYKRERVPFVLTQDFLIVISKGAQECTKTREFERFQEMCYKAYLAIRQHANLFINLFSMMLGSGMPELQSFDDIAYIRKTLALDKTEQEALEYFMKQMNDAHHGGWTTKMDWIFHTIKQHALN
Chain of PI3Kα (His-PIK3CA/PIK3R1, p110 alpha/p85 alpha) (P27986 whole entry partner, species assumed): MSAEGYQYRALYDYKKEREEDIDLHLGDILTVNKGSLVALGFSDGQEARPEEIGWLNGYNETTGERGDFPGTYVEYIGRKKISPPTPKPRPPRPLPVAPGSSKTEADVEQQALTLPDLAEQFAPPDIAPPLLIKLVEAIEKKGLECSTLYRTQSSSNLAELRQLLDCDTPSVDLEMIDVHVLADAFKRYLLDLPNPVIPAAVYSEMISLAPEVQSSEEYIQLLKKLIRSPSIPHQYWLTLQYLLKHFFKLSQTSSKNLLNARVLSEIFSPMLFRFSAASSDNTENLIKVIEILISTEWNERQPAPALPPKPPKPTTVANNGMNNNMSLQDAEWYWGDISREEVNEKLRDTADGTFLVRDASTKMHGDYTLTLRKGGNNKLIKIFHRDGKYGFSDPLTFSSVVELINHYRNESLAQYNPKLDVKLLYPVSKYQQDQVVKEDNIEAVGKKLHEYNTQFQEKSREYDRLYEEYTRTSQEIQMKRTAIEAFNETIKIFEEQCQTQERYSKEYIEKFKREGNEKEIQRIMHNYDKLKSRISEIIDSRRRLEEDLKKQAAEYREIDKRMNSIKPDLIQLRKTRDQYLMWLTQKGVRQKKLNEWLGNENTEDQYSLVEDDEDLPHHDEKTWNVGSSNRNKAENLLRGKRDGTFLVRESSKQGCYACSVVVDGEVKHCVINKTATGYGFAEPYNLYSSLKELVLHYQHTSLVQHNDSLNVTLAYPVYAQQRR
Chain of PI3Kδ (His-PIK3CD/PIK3R1, p110 delta/p85 alpha) (O00329 whole entry, species assumed): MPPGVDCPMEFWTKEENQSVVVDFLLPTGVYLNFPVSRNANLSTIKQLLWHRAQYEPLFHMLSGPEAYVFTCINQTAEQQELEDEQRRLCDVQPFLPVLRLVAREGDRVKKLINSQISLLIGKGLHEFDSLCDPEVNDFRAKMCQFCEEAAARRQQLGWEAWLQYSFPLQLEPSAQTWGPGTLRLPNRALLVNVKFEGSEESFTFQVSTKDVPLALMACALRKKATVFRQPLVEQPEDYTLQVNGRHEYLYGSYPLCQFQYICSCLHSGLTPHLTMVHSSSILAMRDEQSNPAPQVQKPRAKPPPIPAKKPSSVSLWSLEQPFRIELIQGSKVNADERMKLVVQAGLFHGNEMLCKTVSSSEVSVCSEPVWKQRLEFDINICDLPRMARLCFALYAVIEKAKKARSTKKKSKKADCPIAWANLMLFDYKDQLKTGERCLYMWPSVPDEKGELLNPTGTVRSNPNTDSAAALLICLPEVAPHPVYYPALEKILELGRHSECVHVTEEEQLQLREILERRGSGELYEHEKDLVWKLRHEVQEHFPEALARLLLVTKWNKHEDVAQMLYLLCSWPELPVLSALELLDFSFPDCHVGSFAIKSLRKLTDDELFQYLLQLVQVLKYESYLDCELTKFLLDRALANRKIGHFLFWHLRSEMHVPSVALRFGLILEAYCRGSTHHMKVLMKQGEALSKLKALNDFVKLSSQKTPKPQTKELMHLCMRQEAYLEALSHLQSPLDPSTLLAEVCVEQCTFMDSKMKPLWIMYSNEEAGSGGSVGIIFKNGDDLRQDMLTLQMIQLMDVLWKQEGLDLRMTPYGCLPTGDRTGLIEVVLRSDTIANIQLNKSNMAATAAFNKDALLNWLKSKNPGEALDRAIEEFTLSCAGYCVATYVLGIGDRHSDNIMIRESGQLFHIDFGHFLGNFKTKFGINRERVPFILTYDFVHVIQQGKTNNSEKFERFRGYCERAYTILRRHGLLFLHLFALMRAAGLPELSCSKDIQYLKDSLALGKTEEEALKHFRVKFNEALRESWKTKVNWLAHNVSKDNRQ
Chain of PI3Kδ (His-PIK3CD/PIK3R1, p110 delta/p85 alpha) (P27986 whole entry partner, species assumed): as the sequence (P27986 whole entry partner, species assumed) above

As to `Cc1cc2nsnc2cc1Nc1ncc2c(n1)N(C13CC(F)(C1)C3)C(=O)C21CC1` [Compound 73, 7′-(3-fluorobicyclo[1.1.1]pentan-1-yl)-2′-((6-methylbenzo[c][1,2,5]thiadiazol-5-yl)amino)spiro[cyclopropane-1,5′-pyrrolo[2,3-d]pyrimidin]-6′(7′H)-one], the IC50 is 100 to 1000 nM in assay [1] (class symbol), at least 1000 nM at ATM (setting [3]), under 1 nM on DNA-PK (setting [4]) and at least 1000 nM in assay [2] (class symbol).
On to `COC12CCC(n3c(=O)n(C)c4cnc(Nc5cc(F)c(-c6cnn(C)c6)cc5C)nc43)(C1)C2` [Compound 39, 2-((5-fluoro-2-methyl-4-(1-methyl-1H-pyrazol-4-yl)phenyl)amino)-9-(4-methoxybicyclo[2.1.1]hexan-1-yl)-7-methyl-7,9-dihydro-8H-purin-8-one], for which the 50% inhibitory concentration (IC50) in assay [1] (class symbol) is 100 to 1000 nM; against ATM (class symbol) it was 10 to 100 nM; at DNA-PK (class symbol), 10 to 100 nM; in assay [2] (class symbol), at least 1000 nM.
Consider `Cc1cc2ncnn2cc1Nc1ncc2c(n1)n(C13CC(F)(C1)C3)c(=S)n2C` [Compound 34, 9-(3-fluorobicyclo[1.1.1]pentan-1-yl)-7-methyl-2-((7-methyl-[1,2,4]triazolo[1,5-a]pyridin-6-yl)amino)-7,9-dihydro-8H-purine-8-thione], for which the half-maximal inhibitory concentration (IC50) in assay [1] (class symbol) was at least 1000 nM; at ATM (setting [3]), at least 1000 nM; at DNA-PK (class symbol) it was 10 to 100 nM; in assay [2] (class symbol), 100 to 1000 nM.
As for `Cc1cc2nccnc2cc1Nc1ncc2c(C)nn(C34CC(C3)C4)c2n1` [Compound 49, N-(1-(bicyclo[1.1.1]pentan-1-yl)-3-methyl-1H-pyrazolo[3,4-d]pyrimidin-6-yl)-7-methylquinoxalin-6-amine], the IC50 was 100 to 1000 nM in assay [1] (class symbol), 10 to 100 nM against ATM (class symbol), under 1 nM on DNA-PK (setting [4]) and 100 to 1000 nM in assay [2] (class symbol).
`COC12CCC(n3c(=O)n(C)c4cnc(Nc5cc(F)c(-c6cnco6)cc5C)nc43)(C1)C2` [Compound 41, 2-((5-fluoro-2-methyl-4-(oxazol-5-yl)phenyl)amino)-9-(4-methoxybicyclo[2.1.1]hexan-1-yl)-7-methyl-7,9-dihydro-8H-purin-8-one]: the IC50 in assay [1] (class symbol) was 100 to 1000 nM; at ATM (class symbol), 1 to 10 nM; against DNA-PK (class symbol), 1 to 10 nM; in assay [2] (class symbol) it was at least 1000 nM.
Consider `Cc1cc2ncccc2cc1Nc1ncc2c(n1)N(C13CC(F)(C1)C3)C(=O)C21CC1` [Compound 71, 7′-(3-fluorobicyclo[1.1.1]pentan-1-yl)-2′-((7-methylquinolin-6-yl)amino)spiro[cyclopropane-1,5′-pyrrolo[2,3-d]pyrimidin]-6′(7′H)-one], for which the half-maximal inhibitory concentration (IC50) in assay [1] (class symbol) was 100 to 1000 nM; at ATM (class symbol), 100 to 1000 nM; at DNA-PK (setting [4]) it was under 1 nM; in assay [2] (class symbol), at least 1000 nM.
With `Cc1cc2nonc2cc1Nc1ncc2c(n1)N(C13CCC(O)(CC1)C3)CC(=O)N2C` [Compound 60, 8-(4-hydroxybicyclo[2.2.1]heptan-1-yl)-5-methyl-2-((6-methylbenzo[c][1,2,5]oxadiazol-5-yl)amino)-7,8-dihydropteridin-6(5H)-one], the half-maximal inhibitory concentration (IC50) is 100 to 1000 nM in assay [1] (class symbol), 10 to 100 nM at ATM (class symbol), under 1 nM on DNA-PK (setting [4]) and 100 to 1000 nM in assay [2] (class symbol).
On to `Cc1cc2nsnc2cc1Nc1ncc2c(n1)n(C13CCC(O)(CC1)C3)c(=O)n2C` [Compound 3, 9-(4-hydroxybicyclo[2.2.1]heptan-1-yl)-7-methyl-2-((6-methylbenzo[c][1,2,5]thiadiazol-5-yl)amino)-7,9-dihydro-8H-purin-8-one], for which the 50% inhibitory concentration (IC50) in assay [1] (class symbol) is 10 to 100 nM; on ATM (class symbol), 1 to 10 nM; on DNA-PK (setting [4]), under 1 nM; in assay [2] (class symbol) it was at least 1000 nM.
With `COC12CCC(N3CC(=O)N(C)c4cnc(Nc5cc6c(cc5C)OCO6)nc43)(CC1)C2` [Compound 63, 8-(4-methoxybicyclo[2.2.1]heptan-1-yl)-5-methyl-2-((6-methylbenzo[d][1,3]dioxol-5-yl)amino)-7,8-dihydropteridin-6(5H)-one], the half-maximal inhibitory concentration (IC50) in assay [1] (class symbol) is at least 1000 nM; against ATM (class symbol), 100 to 1000 nM; at DNA-PK (class symbol), 1 to 10 nM; in assay [2] (class symbol) it was 100 to 1000 nM.
Turning to `COC12CCC(N3CC(=O)N(C)c4cnc(Nc5cc6cccnc6cc5C)nc43)(CC1)C2` [Compound 65, 8-(4-methoxybicyclo[2.2.1]heptan-1-yl)-5-methyl-2-((7-methylquinolin-6-yl)amino)-7,8-dihydropteridin-6(5H)-one], the IC50 in assay [1] (class symbol) was 10 to 100 nM; on ATM (class symbol) it was 1 to 10 nM; at DNA-PK (setting [4]), under 1 nM; in assay [2] (class symbol), 100 to 1000 nM.
As for `COCC12CC(n3c(=O)n(C)c4cnc(Nc5cn6ncnc6cc5C)nc43)(C1)C2` [Compound 20, 9-(3-(methoxymethyl)bicyclo[1.1.1]pentan-1-yl)-7-methyl-2-((7-methyl-[1,2,4]triazolo[1,5-a]pyridin-6-yl)amino)-7,9-dihydro-8H-purin-8-one], the IC50 in assay [1] (class symbol) was 100 to 1000 nM; at ATM (class symbol), 1 to 10 nM; against DNA-PK (class symbol), 1 to 10 nM; in assay [2] (class symbol), at least 1000 nM.
For `Cc1cc2nccnc2cc1Nc1ncc2c(n1)N(C13CCC(O)(CC1)C3)CC(=O)N2C` [Compound 59, 8-(4-hydroxybicyclo[2.2.1]heptan-1-yl)-5-methyl-2-((7-methylquinoxalin-6-yl)amino)-7,8-dihydropteridin-6(5H)-one], the half-inhibitory concentration (IC50) in assay [1] (class symbol) is 100 to 1000 nM; at ATM (class symbol) it was 10 to 100 nM; on DNA-PK (setting [4]), under 1 nM; in assay [2] (class symbol), 100 to 1000 nM.
On to `Cc1cc2c(cc1Nc1ncc3c(n1)n(C14CC(C#N)(C1)C4)c(=O)n3C)OCO2` [Compound 17, 3-(7-methyl-2-((6-methylbenzo[d][1,3]dioxol-5-yl)amino)-8-oxo-7,8-dihydro-9H-purin-9-yl) bicyclo[1.1.1]pentane-1-carbonitrile], for which the IC50 in assay [1] (class symbol) was at least 1000 nM; against ATM (class symbol) it was 100 to 1000 nM; against DNA-PK (class symbol) it was 1 to 10 nM; in assay [2] (class symbol), at least 1000 nM.
For `Cc1cc2nccnc2cc1Nc1ncc2c(n1)n(C13CC(F)(C1)C3)c(=O)n2C` [Compound 15, 9-(3-fluorobicyclo[1.1.1]pentan-1-yl)-7-methyl-2-((7-methylquinoxalin-6-yl)amino)-7,9-dihydro-8H-purin-8-one], the half-inhibitory concentration (IC50) in assay [1] (class symbol) was 100 to 1000 nM; at ATM (class symbol), 100 to 1000 nM; against DNA-PK (class symbol), 1 to 10 nM; in assay [2] (class symbol), at least 1000 nM.
On to `[2H]C([2H])([2H])n1c(=O)n(C23CCC(O)(CC2)C3)c2nc(Nc3cn4ncnc4cc3C)ncc21` [Compound 77, 9-(4-hydroxybicyclo[2.2.1]heptan-1-yl)-7-(methyl-d3)-2-((7-methyl-[1,2,4]triazolo[1,5-a]pyridin-6-yl)amino)-7,9-dihydro-8H-purin-8-one], for which the IC50 in assay [1] (class symbol) was 100 to 1000 nM; at ATM (class symbol) it was 10 to 100 nM; at DNA-PK (setting [4]), under 1 nM; in assay [2] (class symbol), 100 to 1000 nM.
As to `Cc1cc2ncnn2cc1Nc1ncc2c(n1)n(C13CCC(O)(CC1)CC3)c(=O)n2C` [Compound 78, 9-(4-hydroxybicyclo[2.2.2]octan-1-yl)-7-methyl-2-((7-methyl-[1,2,4]triazolo[1,5-a]pyridin-6-yl)amino)-7,9-dihydro-8H-purin-8-one], the half-inhibitory concentration (IC50) in assay [1] (class symbol) is 100 to 1000 nM; in assay [1] (numeric value), 152 nM; against ATM (class symbol) it was 10 to 100 nM; at ATM (read-out: ATM HTRF 10 μM ATP IC50, numeric value), 36 nM; at DNA-PK (class symbol), under 1 nM; at DNA-PK (read-out: DNA-PK HotSpot 10 μM ATP IC50, numeric value) it was 0.71 nM. The IC50 in assay [2] (class symbol) was 100 to 1000 nM; in assay [2] (numeric value) it was 214 nM.

One may read the IC50 as the concentration that gives 50% inhibition.
